According to patent US20090209937A1 (priority 2007, published 2009):
“Also recorded” adds a separate entry of the source.

Columns and labels:
fully-kindled rats = details: rat, in vivo
[1] = test system: fully amygdala kindled rats; details: rat, in vivo
Non-kindled rats = details: rat, in vivo
[2] = test system: amygdala and surrounding brain structures; details: rat, in vivo
[3] = test system: audiogenic seizure susceptible mice; details: mouse, in vivo; cited from earlier work

NC(=O)N1c2ccccc2C=Cc2ccccc21 [carbamazepine]
adverse neurological or behavioral effects (fully-kindled rats): not associated with any observable adverse neurological or behavioral effects
increase in mean AD threshold and decreases in mean seizure stage and mean behavioral seizure duration vs vehicle (p value) [1]: < 0.05
kindling measures vs vehicle at later time points [1]: no differences
time course of activity after CED infusion (in words) [1]: apparent at 20 min but not at 24 h; also recorded: active at 20 min but not at 24 h

ω-conotoxin GVIA [ω-CTX-G]
behavioral effects of the toxin infusion (in words) (Non-kindled rats): no or only mild behavioral effects
body weight gain (Non-kindled rats): 3.0±1.8%
body weight loss (Non-kindled rats): 10.3±0.9%
cumulative dose corresponding to the threshold for locomotor arrest (Non-kindled rats): 0.013 ± 0.001 nmol
cumulative dose corresponding to the threshold for whole body tremors (Non-kindled rats): 0.027 ± 0.002 nmol
onset of locomotor activity arrest following the infusion (Non-kindled rats): 5.0 ± 0.4 min
onset of rhythmic whole body tremors following the infusion (Non-kindled rats): 10.8 ± 0.9 min
persistence of tremors (Non-kindled rats): 24 h
rats exhibiting locomotor activity arrest followed by whole body tremors (Non-kindled rats): All six
tissue damage after repeated CED infusions (cresyl violet and silver staining) [2]: minimal damage
body weight increase (fully-kindled rats): 0.1±2.1%
resolution of tremor (fully-kindled rats): resolved by the third day after the infusion
tremor after infusions of lower doses (fully-kindled rats): No tremor was observed
time of maximum increase in AD threshold / maximum protective effect after CED infusion [1]: 48 h
protection against seizures [3]: protected against seizures
